According to patent publication US11357740B2, “Cannabidiol for enhancing the therapeutic effect of a steroid” (STERO BIOTECHS LTD., priority 2013, dated 2022):

Assays:
[1] = system: patients undergoing allogeneic hematopoietic stem cell transplantation; experiment: Prevention of acute and chronic GVHD in allogeneic stem cell transplanted patients (46 patients); type: in vivo, human; parameters: Non-relapse mortality / Overall survival rate: concentration or dose not given beside the values
Protocol: Forty six (46) patients over 18 years of age undergoing allogeneic hematopoietic stem cell transplantation at the Rabin Medical Center in Israel were recruited. Patients having history of psychosis or asthma, or consuming Cannabis during the last two months before transplantation were excluded from the study.
All patients received standard GVHD prophylaxis consisting of cyclosporine twice a day starting on day −1 with target trough levels ≥200 ng/mL in combination with short course of methotrexate (15 mg/sqm on day +1 and 10 mg/sqm on days +3 and +6). Most patients transplanted from unrelated donors received anti-T-cell globulin (ATG Fresenius) at a low dose of 5 mg/kg on days −3 to −1.
The investigational agent, CBD (STI Pharmaceuticals, Brentwood, Essex, UK) was dissolved in olive oil at a concentration of 2.5% and was orally administered from day −7 through day +30. The starting dose of CBD was 10 mg twice a day, and doses were doubled every other day to a maximal dose of 150 mg twice a day.
To estimate the prophylactic and therapeutic effect of Cannabidiol, the patients were carefully monitored and documented for the presentation of acute and chronic GVHD symptoms, the time of onset, the severity of the symptoms, the responsiveness to treatment, and the occurrence of infections.
Furthermore, a panel of 4 serum cytokines (soluble TNF receptor 1 (sTNFRI), soluble IL-2 receptor alpha (sIL2R-alpha), hepatocyte growth factor (HGF), and IL8)) were monitored. Blood samples were taken at days −7(A), 0(B), +14(C), and +28(D). The difference in blood levels between the various time points (B-A, C-B and D-C) were assessed.
Primary end points were safety and cumulative incidence of grade 2-4 and grade 3-4 GVHD by day +100. The secondary end points were cumulative incidence of chronic and severe chronic GVHD, non-relapse mortality (NRM), relapse incidence (RI), and overall survival (OS). NRM mortality was defined as death while the patient was in CR. Cumulative incidence curves were used for acute GVHD and chronic GVHD estimation, taking into account relapse and death as competing risks. Cumulative incidence curves were used for RI and NRM taking into account disease recurrence and death as competing events. Probabilities of OS and LFS were calculated using the Kaplan-Meier estimates.

[2] = system: patients with extensive chronic GVHD after allogeneic HCT; experiment: CBD treatment for chronic GVHD (12 patients); type: in vivo, human; settings: oral CBD 50 mg twice a day
Protocol: Twelve patients over 18 years of age with extensive chronic GVHD after allogeneic HCT were recruited at the Rabin Medical Center in Israel. Patients having a history of psychosis or asthma, or consuming Cannabis during the last two months before transplantation were excluded from the study.
Patients were presently treated with a calcineurine inhibitor (cyclosporine or tacrolimus) with or without oral prednisone.
Patients were given oral CBD 50 mg twice a day.

[3] = system: patients experiencing severe acute GVHD; experiment: Case studies: CBD for severe (grade 3-4) and/or refractory acute GVHD; type: in vivo, human
Protocol: This example describes cases studies that show the surprising efficacy of CBD treatment of patients experiencing severe acute GVHD.
A person with acute myeloid leukemia in second complete remission, underwent an allogeneic hematopoietic cell transplantation from a matched sibling donor with a myeloablative conditioning consisting of fludarabine (160 mg/m^2) and busulfex (12.8 mg/kg). One month post-transplantation they developed classic grade 4 acute GVHD of the gastro-intestinal tract (GIT) confirmed by intestinal biopsy. They were refractory to cyclosporine and high-dose steroids, and was then given second line therapy consisting of mycophenolate mofetil followed by extra-corporeal photopheresis (ECP), from which a partial response was obtained. The patient then developed severe myopathy and became bed restricted. During tapering off of steroids they had relapse of grade 4 acute GVHD with GIT and skin involvement. They were refractory to high-dose steroids and thus started oral cannabidiol (CBD) 150 mg twice a day. […] CBD was stopped several weeks later upon remission. […] Nevertheless, they developed chronic GVHD for which they were given low dose cyclosporine and low dose prednisone.
A person with Philadelphia positive acute lymphoid leukemia in first complete remission underwent an allogeneic hematopoietic cell transplantation from a matched unrelated donor with reduced intensity conditioning consisting of fludarabine (150 mg/m^2), busulfex (12.8 mg/kg) and ATG (Fresenius, 15 mg/kg). Two months after transplantation, they developed generalized erythroderma ranked as stage 3 and grade 2 acute GVHD of the skin, which was confirmed by skin biopsy. Due to refractoriness to tacrolimus, systemic and topical steroids they started ECP with some improvement but without remission. They were still on tacrolimus and steroids when 11 months post-transplantation they had severe worsening of their skin rash with generalized erythroderma and desquamation ranked as stage 4 and grade 4 acute GVHD of the skin. They started oral CBD 150 mg twice a day and prednisone 40 mg once a day. […] CBD was stopped 2 months later after obtaining complete remission of acute GVHD.
A person with acute myeloid leukemia in first complete remission, underwent an allogeneic hematopoietic cell transplantation from a matched sibling donor with myeloablative conditioning consisting of busulfex (12.8 mg/kg) and cyclophosphamide (120 mg/kg). Eight months post-transplantation, leukemia relapsed. They received salvage chemotherapy followed by donor lymphocyte infusion (DLI) and achieved a complete hematologic remission. One month post DLI they developed jaundice with bilirubin levels of 11.5 mg % (normal≤1 mg %) and biopsy proven late onset acute GVHD of the liver ranked as stage 3 and grade 3. They were refractory to high-dose steroids and started oral CBD 150 mg twice a day.

[4] = system: patients experiencing severe refractory chronic GVHD; experiment: Case studies: CBD for severe refractory chronic GVHD; type: in vivo, human; settings: person
Protocol: This example describes cases studies that show the surprising efficacy of CBD treatment of patients experiencing severe refractory chronic GVHD.
A person with acute lymphoid leukemia in first complete remission, underwent an allogeneic hematopoietic cell transplantation from a matched unrelated donor with myeloablative conditioning consisting of total body irradiation (12 Gray), cyclophosphamide and ATG (Fresenius, 15 mg/kg). The patient developed an overlap syndrome (concomitant acute plus chronic GVHD features) during the first month after transplantation which was treated with cyclosporine and steroids until complete remission. Immunosuppression was stopped 5 months after transplantation. Eighteen months after transplantation they developed chronic extensive GVHD with involvement of the oral cavity, eyes, liver, joints and skin. Skin involvement progressed to sclerosis. They started again cyclosporine and oral steroids with no improvement. There was no further improvement with imatinib (Gleevec). […] Unexpectedly, Prednisone effective therapeutic dose was tapered off up to 7.5-10 mg QD (20-50% reduction in the steroid's dose).
A person with acute myeloid leukemia in second complete remission underwent an allogeneic hematopoietic cell transplantation from a matched sibling donor with myeloablative conditioning consisting of busulfex (12.8 mg/kg) and cyclophosphamide (120 mg/kg). The patient experienced relapse in the central nervous system and breasts 12 months after transplantation, received chemo-radiotherapy and achieved complete remission. Shortly after remission, they developed chronic extensive GVHD with severe involvement of the eyes, joint and skin. Skin involvement progressed to severe sclerosis with limited range of motion of the joints. They were unresponsive to cyclosporine and oral steroids and therefore they were stopped after few months.

[5] = system: patients with late onset acute GVHD given steroids; experiment: Case studies: CBD reduces the effective dose of steroids (late onset acute GVHD); type: in vivo, human
Protocol: Person one with secondary acute myeloid leukemia in 1st complete remission, underwent and allogeneic hematopoietic cell transplantation from a matched unrelated donor with a myeloablative conditioning consisting of fludarabine (160 mg/m^2), busulfex (12.8 mg/kg) and ATG (Fresenius, 15 mg/kg). Eleven months after transplantation they developed jaundice with bilirubin level of 4.2 mg % and biopsy proven late onset acute GVHD of the liver ranked as stage 2 and grade 3. […] They started oral CBD 150 mg BID. […] Steroids could be tapered off to a low dose of 7.5 mg QD.
person two with refractory follicular lymphoma underwent an allogeneic hematopoietic cell transplantation from a matched unrelated donor with a reduced intensity conditioning consisting of fludarabine (150 mg/m^2), melphalan (100 mg/m^2) and ATG (Fresenius 15 mg/kg) and achieved a complete remission. Two years later they relapsed and received salvage immune-chemotherapy with bendamustine and rituximab followed by DLI and achieved a complete remission. One month later they were admitted with severe late onset acute GVHD with skin (rash) and upper (nausea and vomiting) plus lower gastrointestinal involvement (bloody diarrhea, crampy abdominal pain and severely inflamed and ulcerated mucosa). Biopsy proven GVHD was ranked as stage 3 of the skin and stage 4 and grade 4 acute GVHD of the GIT. They started cyclosporine and high-dose steroids. Despite skin response, GVHD of the GIT was refractory to prolonged systemic treatment of steroids. […] Prednisone was tapered off to 20 mg QD (40%)—found to be therapeutically effective.

[6] = system: patient suffering from psychological or neurological disorders; settings: doses of up to 1500 mg per day; cited from earlier work
[7] = of the 11 patients with chronic GVHD
[8] = with calcineurine inhibitor with or without oral prednisone
[9] = person, stage 3 grade 3 acute GVHD of the liver, oral CBD 150 mg twice a day

C=C(C)[C@@H]1CCC(C)=C[C@H]1c1c(O)cc(CCCCC)cc1O [CBD, 2-[(6R)-3-Methyl-6-prop-1-en-2-yl-1cyclohex-2-envyl]-5pentylbenzene-1,3-diol]
Cumulative incidence of relapse ([1]; 6 months after HCT): 22%
Non-relapse mortality ([1]; 6 months after HCT): 11.6%
Overall survival rate ([1]; 6 months after HCT): 76%
Cumulative incidence of relapse ([1]; 12 months after HCT): 31%
Non-relapse mortality ([1]; 12 months after HCT): 11.6%
Overall survival rate ([1]; 12 months after HCT): 70%
patients who developed grade 2 to 4 acute GVHD ([1]; 46 patients recruited, CBD prophylaxis): Six
Cumulative incidence of relapse ([1]; 100 days after HCT): 12%
Non-relapse mortality ([1]; 100 days after HCT): 8.1%
Overall survival rate ([1]; 100 days after HCT): 84%
effect on incidence and severity of GVHD (conclusion) ([1]; after allogeneic stem cell transplantation): reduces the incidence and severity of acute and chronic GVHD
patients in whom chronic GVHD occurred ([1]; among patients surviving more than 100 days after HCT (n=33)): 11 patients
Cumulative incidence rate of extensive chronic GVHD ([1]; at 1 year): 19%
Cumulative incidence rate of overall chronic GVHD ([1]; at 1 year): 43%
Cumulative incidence rate of grade 2 to 4 acute GVHD ([1]; at day 100): 12.4%
Cumulative incidence rate of grade 3 to 4 acute GVHD ([1]; at day 100): 5%
patients with limited chronic GVHD [1, 7]: 8 patients
patients with severe chronic GVHD [1, 7]: 3 patients
grade 3 to 4 toxicities related to CBD ([1]; oral CBD 2.5% in olive oil, day -7 to +30, 10 mg up to 150 mg twice a day, with cyclosporine + methotrexate prophylaxis): No grade 3 to 4 toxicities related to CBD were observed
toxicity and psychotropic effects (conclusion) ([1]; preventing acute and chronic GVHD): low toxicity and lack of psychotropic effects
Median time to onset of grade 2 to 4 acute GVHD ([1]; range 41 to 150 days): 60 days
median time to onset of chronic GVHD ([1]; range 125 to 335 days): 159 days
effect on severity of chronic GVHD (conclusion) [2]: reduces the severity of chronic GVHD
clinical improvement, patients with lung involvement [2, 8]: 2 out of 3
clinical improvement, patients with oral involvement [2, 8]: 3 out of 3
clinical improvement, patients with skin involvement [2, 8]: 6 out of 8
effect on refractory steroid dose (conclusion of case studies) ([3]; acute Grade 3 and Grade 4 GVHD): rendered a refractory dose of a steroid-therapeutically effective
clinical response, grade 4 acute GVHD with GIT and skin involvement ([3]; person, refractory to high-dose steroids, oral CBD 150 mg twice a day, after 14 days): complete cessation of diarrhea and resolution of their skin rash
bilirubin level after treatment ([3]; person, stage 3 grade 3 acute GVHD of the liver, baseline 11.5 mg %, refractory to high-dose steroids, oral CBD 150 mg twice a day): 0.7-1.3 mg %
jaundice [3, 9]: resolved within few days
steroid tapering [3, 9]: tapered off until complete cessation
acute GVHD status at follow-up ([3]; person, eighteen months following cessation of treatment): no symptoms or signs of acute GVHD
skin rash and desquamation, stage 4 and grade 4 acute GVHD of the skin ([3]; person, oral CBD 150 mg twice a day and prednisone 40 mg once a day, on tacrolimus): improved promptly until complete resolution
clinical response, chronic extensive GVHD with severe sclerosis ([4]; cyclosporine and oral steroids stopped, oral CBD 75 mg BID, after several months): significant improvement of their skin and joints range of motion
clinical response, chronic extensive GVHD (oral cavity, eyes, liver, joints, skin sclerosis) ([4]; no improvement with cyclosporine, oral steroids, imatinib, oral CBD 75 mg twice a day, after several weeks): resolved their liver and oral GVHD and significantly improved skin sclerosis and joint range of motion
Prednisone effective therapeutic dose tapered off up to ([4]; oral CBD 75 mg twice a day): 7.5-10 mg QD
reduction in the steroid's dose ([4]; oral CBD 75 mg twice a day): 20-50%
jaundice and bilirubin, stage 3 and grade 3 acute GVHD of the liver ([5]; person one, bilirubin 8.5 mg % on tacrolimus and steroids, oral CBD 150 mg BID): Jaundice resolved gradually and bilirubin dropped to normal levels
steroid dose tapered off to ([5]; person one, oral CBD 150 mg BID): 7.5 mg QD
clinical response, stage 4 and grade 4 acute GVHD of the GIT ([5]; person two, refractory to prolonged systemic steroids, oral CBD 150 mg BID with steroids): very good partial response (VGPR)
response upon renewal of treatment ([5]; person two, methylprednisolone 0.5 mg/kg QD and CBD 150 mg BID): A second VGPR was obtained
Prednisone tapered off to ([5]; person two, oral CBD 150 mg BID): 20 mg QD
Prednisone tapered dose, printed percentage ([5]; person two, oral CBD 150 mg BID, prednisone 20 mg QD): 40%
outcome after discontinuing CBD ([5]; person two, two months later, CBD discontinued without doctors' approval): diarrhea resumed following discontinuing CBD
adverse effects in clinical studies [6]: without any significant adverse effects
